According to patent US20200289482A1, “CYSTIC FIBROSIS TRANSMEMBRANE CONDUCTANCE REGULATOR MODULATORS FOR TREATING AUTOSOMAL DOMINANT POLYCYSTIC KIDNEY DISEASE” (The Johns Hopkins University, priority 2017, published 2020):

Columns and labels:
CFTR = CFTR (Mus musculus, UniProt P26361); assay: CFTR expression in PN cells; type: cell-based; design: endogenous in cells; host or cells: PN (Pkd1-null mouse proximal tubule) cells; settings: 10 μM VX-809 for 16 h vs control PN cells
Method: FIG. 19A, FIG. 19B, FIG. 19C, and FIG. 19D show CFTR expression in PN cells treated with VX-809 (10 μM) for 16 h.
The expression of CFTR was evaluated in PN cells treated with VX-809 and control PN cells. PN cells were treated with 10 μM VX-809 for 16 h or a control.

Hsp90 [1] = assay: Western blot of Hsp90 in PN cells; type: cell-based, mouse; settings: VX-809 10 μM 16 h
Method: FIG. 8A, FIG. 8B, FIG. 8C, FIG. 8D, FIG. 8E, FIG. 8F, FIG. 8G, and FIG. 8H show chaperone expression is altered in PH and PN cells by VX-809. (FIG. 8A) Western blot showing expression of HSP27, 70 and HSP 90 in VX-809 treated or control PN cells. […] (FIG. 8E). Western blot of HSP27, 70 and 90 in PH vs. PN cells. […] Whereas, Hsp70 is higher in PH vs. PN cells. Data were analyzed by non-parametric t test. Experiment was repeated 4-5 times. Cells were grown in 10-cm culture dishes at permissive conditions (33° C.) with γ-interferon in culture media. Cells were then transferred to non-permissive conditions at 37° C., γ-interferon free culture media and evaluated at full confluence. At day four, cells were treated with VX-809 (10 μM) for 16 h and harvested on fifth day for assay. *P<0.05., **P<0.01, ***P<0.001, ****P<0.0001; To facilitate their growth in the kidney, cysts have developed an altered network of proteins that most likely serves to protect them from stress (34). Next, it was determined whether VX-809 would alter the levels of Hsps in pkd−/− mice and in PN cells. […] Hsp 27, 70 and 90 are all elevated in cystic kidneys compared to normal controls. […] There is no change in Hsp 40. […] Both sets of data are consistent with an alteration in the heat shock response to cyst growth.

PN cells = assay: BrdU cell proliferation assay; type: cell-based, mouse; settings: 1 and 10 μM vs DMSO-treated cells
Source text: FIG. 3A, FIG. 3B, FIG. 3C, and FIG. 3D show cell proliferation is reduced by VX-809. (FIG. 3A-FIG. 3B) Proliferation in kidneys of Pkd1^fl/fl; Pax8^rtTA; TetO-cre mice. Representative images of Ki67 (a cellular marker for proliferation) staining of PN21 kidney sections from DMSO- and VX-809-treated mice. Arrows indicate Ki67-positive cells. Pictures were acquired with a Zeiss microscope equipped with 20× objective. (FIG. 3C) Summary data for Ki67-positive cells. Columns represent averages±standard errors of DMSO (vehicle)-treated (n=3) and VX-809-treated (n=3) mice. Statistical analysis was performed using a two-tailed Student's t test. (FIG. 3D) Proliferation in PN cells. PN cells were treated with VX-809 or DMSO). The bromodeoxyuridine (BrdU) concentration in the cells was measured by using a BrdU cell proliferation assay kit (Millipore Sigma #2750) according to the manufacturer's protocol. Columns represent averages±SEs of the OD of BrdU at 450/550 […]. Data were analyzed using Student's t-test, with n=5-7. Methods were described previously (62). […]; **P<0.01;
A hallmark of the cysts in ADPKD is an increase in proliferation in response to cAMP (23). Therefore, it was determined whether VX-809 would affect proliferation.

Hsp90 [2] = assay: Western blot of Hsp90 in kidney tissue lysates; type: in vivo, mouse; settings: cyst induced pkd−/− mice, VX-809 30 mg/kg BW
Method: FIG. 7A, FIG. 7B, FIG. 7C, FIG. 7D, FIG. 7E, and FIG. 7F show chaperone expression is altered in mice by VX-809. (FIG. 7A-FIG. 7B) Representative Western blot images of HSP27, 70, 90 and HSP40 in lysates of kidney tissue from no cyst induced (ND), cyst induced with Doxycycline (D) or cyst induced pkd−/− mice treated with VX-809 (D+VX-809) 30 mg/kg BW. (FIG. 7C, FIG. 7D, FIG. 7E, and FIG. 7F) Columns represent averages±standard errors of HSP27, 70, 90 and HSP40 expression. Data were analyzed by non-parametric t-test. n=4 for each treated and control groups. Black lines between lanes represent representative experiments from the same gel. *P<0.05; **P<0.01; To facilitate their growth in the kidney, cysts have developed an altered network of proteins that most likely serves to protect them from stress (34). Next, it was determined whether VX-809 would alter the levels of Hsps in pkd−/− mice and in PN cells. […] Hsp 27, 70 and 90 are all elevated in cystic kidneys compared to normal controls. […] There is no change in Hsp 40. […] Both sets of data are consistent with an alteration in the heat shock response to cyst growth.

Hsp27 = assay: Cycloheximide chase, disappearance of Hsp27 in PN cells; type: cell-based, mouse; settings: VX-809 10 μM with cycloheximide 25 μM
Method: FIG. 9A, FIG. 9B, FIG. 9C, FIG. 9D, FIG. 9E, FIG. 9F, FIG. 9G, and FIG. 9H show Hsp27, HSp70, and Hsp90 expression in PN cells treated with VX-809 and/or cycloheximide. (A) Pkd1 null (PN) cells were treated with VX-809 (10 μM) and/or with cycloheximide (25 μM) for indicated time points before being harvested for the assay. (FIG. 9A) Western blot showing expression of Hsp27, Hsp70, and Hsp90 in VX-809-(16 h), cycloheximide-treated, or control PN cells. ((FIG. 9B. (FIG. 9C, and (FIG. 9D) Columns represent averages±standard errors of Hsp27, Hsp70, and Hsp90 expression in cells treated with VX-809 and/or cycloheximide. ((FIG. 9E) Western blot showing expression of Hsp27, Hsp70, and Hsp90 in PN cells treated with VX-809+cycloheximide or control PN cells. ((FIG. 9F, (FIG. 9G, and (FIG. 9H) Columns represent averages±standard errors of Hsp27, Hsp70, and Hsp90 expression in cells treated only with cycloheximide or in control PN cells. Data were analyzed by non-parametric t-test. The experiments were repeated 3-5 times. *P<0.05, **P<0.01;
To gain more insight into the mechanism whereby VX-809 alters Hsp protein levels, translation was inhibited by using cycloheximide (35) and the disappearance of the three Hsps was monitored. […] Hsp 90 was reduced by approximately 25%, and Hsp27 was unchanged.

CFTR, sequence (P26361 whole entry): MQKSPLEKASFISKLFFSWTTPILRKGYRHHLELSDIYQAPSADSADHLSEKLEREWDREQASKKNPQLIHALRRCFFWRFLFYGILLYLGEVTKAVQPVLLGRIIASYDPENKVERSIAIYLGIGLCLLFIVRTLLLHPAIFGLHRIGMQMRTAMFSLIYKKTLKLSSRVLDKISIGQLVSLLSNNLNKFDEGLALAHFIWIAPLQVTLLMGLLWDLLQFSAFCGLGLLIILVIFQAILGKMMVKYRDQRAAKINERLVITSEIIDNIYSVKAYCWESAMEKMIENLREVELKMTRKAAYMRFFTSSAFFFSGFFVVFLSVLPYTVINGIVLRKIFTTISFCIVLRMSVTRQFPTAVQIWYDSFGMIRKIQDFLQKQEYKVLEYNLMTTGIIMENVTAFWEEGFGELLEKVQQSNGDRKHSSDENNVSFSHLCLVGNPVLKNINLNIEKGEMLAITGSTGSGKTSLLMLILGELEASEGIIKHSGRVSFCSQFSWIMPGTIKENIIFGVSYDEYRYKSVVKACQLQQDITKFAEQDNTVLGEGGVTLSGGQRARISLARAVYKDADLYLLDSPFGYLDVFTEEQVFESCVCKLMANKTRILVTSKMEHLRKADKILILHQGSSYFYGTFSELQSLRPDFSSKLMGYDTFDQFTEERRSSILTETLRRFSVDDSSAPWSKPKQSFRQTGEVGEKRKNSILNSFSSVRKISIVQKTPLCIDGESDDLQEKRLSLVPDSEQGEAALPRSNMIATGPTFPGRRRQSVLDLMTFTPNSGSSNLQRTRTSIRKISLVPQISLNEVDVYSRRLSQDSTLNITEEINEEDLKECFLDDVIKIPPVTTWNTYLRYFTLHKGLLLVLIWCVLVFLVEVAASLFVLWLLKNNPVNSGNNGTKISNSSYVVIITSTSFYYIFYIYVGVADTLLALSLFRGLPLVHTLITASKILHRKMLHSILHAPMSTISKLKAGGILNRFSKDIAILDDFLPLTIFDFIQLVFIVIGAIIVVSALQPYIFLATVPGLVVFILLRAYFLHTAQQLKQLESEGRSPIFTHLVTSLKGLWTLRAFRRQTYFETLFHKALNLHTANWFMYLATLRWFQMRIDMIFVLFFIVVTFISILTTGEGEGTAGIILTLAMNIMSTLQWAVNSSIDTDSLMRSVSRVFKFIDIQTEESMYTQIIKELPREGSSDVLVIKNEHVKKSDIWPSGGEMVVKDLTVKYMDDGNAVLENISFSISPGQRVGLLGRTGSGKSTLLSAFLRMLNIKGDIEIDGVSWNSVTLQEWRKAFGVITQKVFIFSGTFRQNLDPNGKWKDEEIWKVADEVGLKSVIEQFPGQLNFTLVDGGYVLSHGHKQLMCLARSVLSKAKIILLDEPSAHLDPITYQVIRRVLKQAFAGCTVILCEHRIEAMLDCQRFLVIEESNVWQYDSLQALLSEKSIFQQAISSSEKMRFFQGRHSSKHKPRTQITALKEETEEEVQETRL

CFTR expression (CFTR): enhanced CFTR expression
Substance: lumacaftor [VX-809]
Hsp90 expression in PN cells (Hsp90 [1]): reduced expression
cell proliferation (BrdU) (PN cells): significantly inhibit cell proliferation
Hsp90 expression in kidneys (Hsp90 [2]): significantly less expression
Hsp27 level over the 8-h period (Hsp27): unchanged
